Data from ChEMBL document CHEMBL5126513 (Eur J Med Chem, 2022).

Tests used:
[1] = target: T1, Tyrosine-protein kinase BTK (Homo sapiens, UniProt Q06187); assay: Inhibition of full-length wild-type BTK (unknown origin) measured by HTRF assay
[2] = target: T2, Protein cereblon/Tyrosine-protein kinase BTK (Homo sapiens, UniProt Q06187+Q96SW2); assay: Protac activity at CRBN (unknown origin)/BTK (unknown origin) assessed as BTK degradation; assay type: protein assay
[3] = target: T2, Protein cereblon/Tyrosine-protein kinase BTK; assay: Protac activity at CRBN/BTK in human MINO cells assessed as BTK degradation; assay type: cell-based
[4] = target: T1, Tyrosine-protein kinase BTK; assay: Inhibition of BTK (unknown origin)
[5] = target: Tyrosine-protein kinase Blk (Homo sapiens, UniProt P51451); assay: Inhibition of BLK (unknown origin)
[6] = target: T3, Tyrosine-protein kinase TXK (Homo sapiens, UniProt P42681); assay: Inhibition of TXK (unknown origin)
T3 sequence (P42681 whole entry): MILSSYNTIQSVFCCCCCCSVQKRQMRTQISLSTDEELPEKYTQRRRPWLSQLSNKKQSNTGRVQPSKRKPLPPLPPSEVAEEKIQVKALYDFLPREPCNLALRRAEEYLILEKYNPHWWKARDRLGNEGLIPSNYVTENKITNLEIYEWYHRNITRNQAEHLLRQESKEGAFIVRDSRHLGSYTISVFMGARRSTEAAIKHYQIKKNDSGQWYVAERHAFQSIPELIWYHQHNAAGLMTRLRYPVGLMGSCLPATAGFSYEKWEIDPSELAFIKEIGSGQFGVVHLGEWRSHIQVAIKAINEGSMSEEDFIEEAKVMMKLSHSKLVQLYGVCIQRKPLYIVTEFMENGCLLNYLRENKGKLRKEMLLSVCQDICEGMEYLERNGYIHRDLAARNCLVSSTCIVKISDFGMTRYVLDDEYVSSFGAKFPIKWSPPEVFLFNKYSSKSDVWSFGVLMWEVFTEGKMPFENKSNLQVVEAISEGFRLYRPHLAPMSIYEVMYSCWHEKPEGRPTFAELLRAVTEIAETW

T1 sequence (Q06187 whole entry): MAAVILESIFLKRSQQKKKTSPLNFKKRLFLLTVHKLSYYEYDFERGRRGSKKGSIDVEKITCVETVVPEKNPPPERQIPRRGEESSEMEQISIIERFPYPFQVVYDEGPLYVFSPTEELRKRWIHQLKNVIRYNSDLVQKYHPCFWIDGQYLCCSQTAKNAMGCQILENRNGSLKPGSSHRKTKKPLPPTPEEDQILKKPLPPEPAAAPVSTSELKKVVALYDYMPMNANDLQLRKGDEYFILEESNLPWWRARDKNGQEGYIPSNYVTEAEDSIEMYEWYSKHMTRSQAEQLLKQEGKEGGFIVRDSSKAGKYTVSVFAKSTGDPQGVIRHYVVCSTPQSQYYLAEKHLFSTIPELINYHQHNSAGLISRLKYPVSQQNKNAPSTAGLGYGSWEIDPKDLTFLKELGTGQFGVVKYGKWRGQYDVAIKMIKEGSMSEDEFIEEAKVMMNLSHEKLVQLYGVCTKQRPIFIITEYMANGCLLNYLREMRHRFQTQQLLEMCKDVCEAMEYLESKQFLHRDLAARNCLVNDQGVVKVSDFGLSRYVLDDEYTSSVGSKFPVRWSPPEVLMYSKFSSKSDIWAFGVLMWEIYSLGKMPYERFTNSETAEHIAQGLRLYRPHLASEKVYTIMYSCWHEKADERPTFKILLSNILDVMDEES
T2 sequence (Q06187 whole entry): as above
T2 sequence (Q96SW2 whole entry): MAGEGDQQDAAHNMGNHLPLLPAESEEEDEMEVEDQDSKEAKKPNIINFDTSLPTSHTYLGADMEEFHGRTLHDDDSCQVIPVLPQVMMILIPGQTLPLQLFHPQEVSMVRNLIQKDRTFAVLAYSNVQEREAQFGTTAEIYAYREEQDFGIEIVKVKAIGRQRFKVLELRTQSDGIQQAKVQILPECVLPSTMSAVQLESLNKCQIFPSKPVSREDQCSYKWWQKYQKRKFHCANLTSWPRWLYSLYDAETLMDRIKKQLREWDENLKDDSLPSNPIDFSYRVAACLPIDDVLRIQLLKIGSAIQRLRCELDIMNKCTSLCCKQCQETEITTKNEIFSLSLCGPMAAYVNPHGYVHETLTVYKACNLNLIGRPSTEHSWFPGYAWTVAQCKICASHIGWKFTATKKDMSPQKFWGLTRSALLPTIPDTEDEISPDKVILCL
Sequence of Tyrosine-protein kinase Blk (P51451 whole entry): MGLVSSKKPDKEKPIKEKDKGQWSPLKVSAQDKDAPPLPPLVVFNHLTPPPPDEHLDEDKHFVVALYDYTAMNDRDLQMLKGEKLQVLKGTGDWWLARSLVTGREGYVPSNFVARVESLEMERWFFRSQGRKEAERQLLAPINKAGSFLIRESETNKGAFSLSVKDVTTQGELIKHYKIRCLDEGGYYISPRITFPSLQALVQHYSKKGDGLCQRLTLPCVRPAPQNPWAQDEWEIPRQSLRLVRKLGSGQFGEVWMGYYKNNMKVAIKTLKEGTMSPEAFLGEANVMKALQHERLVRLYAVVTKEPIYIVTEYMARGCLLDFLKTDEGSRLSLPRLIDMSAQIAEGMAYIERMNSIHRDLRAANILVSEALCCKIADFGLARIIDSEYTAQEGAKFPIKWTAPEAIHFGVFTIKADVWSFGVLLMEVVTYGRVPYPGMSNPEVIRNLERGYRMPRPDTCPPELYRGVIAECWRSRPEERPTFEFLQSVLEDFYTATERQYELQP

## Cc1cc(Nc2ncc3c(n2)N(C)CN(c2cc(NC(=O)c4cccc(C(F)(F)F)c4)ccc2C)C3)n(C)n1
[1]
  IC50: 10.7 nM

## O=C1CCC(N2C(=O)c3ccc(NCCOCCOCCOCCOCCOCCNC(=O)N[C@H]4CC[C@@H](Nc5ncnc6[nH]cc(C(=O)c7ccc(Oc8ccccc8)cc7Cl)c56)CC4)cc3C2=O)C(=O)N1 (stereo partly specified)
[2]
  DC50: 41.9 nM

## Nc1ncnc2c1c(-c1ccc(Oc3ccccc3)cc1)nn2[C@@H]1CCCN(C(=O)c2cn(CCOCCOCCOCCCc3ccc4c(c3)CN(C3CCC(=O)NC3=O)C4=O)nn2)C1 (stereo partly specified)
[3]
  DC50: 9.2 nM

## COc1ccc(F)cc1C(=O)NCc1ccc(-c2nn([C@@H](C)C(F)(F)F)c(N)c2C(N)=O)cc1 [PIRTOBRUTINIB]
[4]
  IC50: < 1 nM

## CC#CC(=O)N1CC[C@@H](n2c(=O)n(-c3ccc(Oc4ccccc4)cc3)c3c(N)ncnc32)C1 [TIRABRUTINIB]
[5]
  IC50: 1130 nM
[6]
  IC50: 116 nM
